The target of one test is T1, human full-length HSP90 (Homo sapiens, UniProt P08238).
T1 construct: E. coli expressed human full-length HSP90 protein, purified >95%; made in house; host or cells: E. coli
T1 sequence (P08238 whole entry): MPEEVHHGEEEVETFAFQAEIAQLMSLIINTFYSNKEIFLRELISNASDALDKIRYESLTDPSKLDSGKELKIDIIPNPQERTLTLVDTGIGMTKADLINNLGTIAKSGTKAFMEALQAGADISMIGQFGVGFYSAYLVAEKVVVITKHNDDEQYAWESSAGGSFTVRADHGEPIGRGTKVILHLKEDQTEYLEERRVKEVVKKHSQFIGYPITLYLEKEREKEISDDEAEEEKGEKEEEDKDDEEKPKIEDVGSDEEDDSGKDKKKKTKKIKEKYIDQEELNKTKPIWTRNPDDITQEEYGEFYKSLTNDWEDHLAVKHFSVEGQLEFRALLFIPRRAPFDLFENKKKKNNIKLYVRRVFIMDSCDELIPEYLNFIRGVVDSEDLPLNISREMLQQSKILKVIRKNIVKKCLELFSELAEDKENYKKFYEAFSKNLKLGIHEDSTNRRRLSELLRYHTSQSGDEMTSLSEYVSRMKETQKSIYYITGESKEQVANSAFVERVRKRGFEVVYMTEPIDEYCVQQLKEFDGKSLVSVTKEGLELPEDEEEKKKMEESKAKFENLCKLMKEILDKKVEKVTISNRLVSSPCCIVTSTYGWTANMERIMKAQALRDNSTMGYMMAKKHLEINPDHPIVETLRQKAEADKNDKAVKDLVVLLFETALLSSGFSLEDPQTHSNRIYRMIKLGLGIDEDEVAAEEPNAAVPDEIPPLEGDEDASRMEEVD
Briefly: Fluorescence polarization assay (competitive displacement of probe RBT0051001-FAM from HSP90). The note with it: Table 1; read-out: Hsp90 FP IC50. Type of test: binding. The text has this:
Fluorescence Polarization Assay
Fluorescence polarization {also known as fluorescence anisotropy} measures the rotation of a fluorescing species in solution, where the larger molecule the more polarized the fluorescence emission. When the fluorophore is excited with polarized light, the emitted light is also polarized. The molecular size is proportional to the polarization of the fluorescence emission.
The fluoroscein-labelled probe —RBT0051001-FAM—
binds to HSP90 {full-length human, full-length yeast or N-terminal domain HSP90} and the anisotropy {rotation of the probe:protein complex} is measured.
Test compound is added to the assay plate, left to equilibrate and the anisotropy measured again. Any change in anisotropy is due to competitive binding of compound to HSP90, thereby releasing probe.
Chemicals are of the highest purity commercially available and all aqueous solutions are made up in AR water. • 1) Costar 96-well black assay plate #3915 • 2) Assay buffer of (a) 100 mM Tris pH7.4; (b) 20 mM KCl; (c) 6 mM MgCl2. Stored at room temperature. • 3) BSA (bovine serum albumen) 10 mg/ml (New England Biolabs # B9001S) • 4) 20 mM probe in 100% DMSO stock concentration. Stored in the dark at RT. Working concentration is 200 nM diluted in AR water and stored at 4° C. Final concentration in assay 80 nM. • 5) E. coli expressed human full-length HSP90 protein, purified >95% (see, e.g., Panaretou et al., 1998) and stored in 50 μL aliquots at −80° C.
• 1) Add 100 μl 1× buffer to wells 11A and 12A (=FP BLNK) • 2) Prepare assay mix—all reagents are kept on ice with a lid on the bucket as the probe is light-sensitive.
• 3) Aliquot 100 μl assay mix to all other wells • 4) Seal plate and leave in dark at room temp for 20 minutes to equilibrate Compound Dilution Plate—1×3 dilution series • 1) In a clear 96-well v-bottom plate-{# VWR 007/008/257} add 10 μl 100% DMSO to wells B1 to H11 • 2) To wells A1 to A11 add 17.5 μl 100% DMSO • 3) Add 2.5 μl cpd to A1. This gives 2.5 mM {50×} stock cpd-assuming cpds 20 mM. • 4) Repeat for wells A2 to A10. Control in columns 11 and 12. • 5) Transfer 5 μl from row A to row B—not column 12. Mix well. • 6) Transfer 5 μl from row B to row C. […] In column 11 {provides standard curve} only add compound B11-H11. Add 2 μl of 100 mM standard cpd to wells B12-H12 {is positive control} • 13) The Z′ factor is calculated from zero controls and positive wells. It typically gives a value of 0.7-0.9.
The compounds tested in the above assay were assigned to one of two activity ranges, namely A=<10 μM; B=>10 μM, and those assignments are reported above.
For orientation: Polarisation of emitted light reports the rotation of a fluorescent probe.
Turning to `CONC(=O)c1cc2c(-c3ccc(Cl)cc3Cl)nc(N)nc2s1` [Example 14], the IC50 was below 10 µM.
As for `CCONC(=O)c1cc2c(-c3ccc(Cl)cc3Cl)nc(N)nc2s1` [Example 15], the IC50 is below 10 µM.
On the same count and under the same terms, with `CNNC(=O)c1cc2c(-c3ccc(Cl)cc3Cl)nc(N)nc2s1` [Example 16] the figure was below 10 µM; with `CCCNC(=O)c1ccc(C)c(-c2nc(N)nc3sc(C(=O)NOC)cc23)c1` [Example 17], below 10 µM.

Staying with this test, now noted: activity range stated in each example; read-out: activity in the fluorescence polarization assay.
Take `Nc1nc(-c2ccc(Cl)cc2Cl)c2cc(C(=O)O)sc2n1` [Example 1, 2-Amino-4-(2,4-dichloro-phenyl)-thieno[2,3-d]pyrimidine-6-carboxylic acid]: the IC50 is below 10 µM.
`Cc1ccc(-c2nc(N)nc3sc(C(=O)O)cc23)c(C)c1` [Example 2, 2-Amino-4-(2,4-dimethyl-phenyl)-thieno[2,3-d]pyrimidine-6-carboxylic acid]: the IC50 was above 10 µM.
As for `CC(C)(O)c1cc2c(-c3ccc(Cl)cc3Cl)nc(N)nc2s1` [Example 3, 2-[2-Amino-4-(2,4-dichloro-phenyl)-thieno[2,3-d]pyrimidin-6-yl]-propan-2-ol], the IC50 is above 10 µM.
`CCC(O)(CC)c1cc2c(-c3ccc(Cl)cc3Cl)nc(N)nc2s1` [Example 4, 3-[2-Amino-4-(2,4-dichloro-phenyl)-thieno[2,3-d]pyrimidin-6-yl]-pentan-3-ol]: the IC50 is below 10 µM.
Turning to `Nc1nc(-c2ccc(Cl)cc2Cl)c2cc(C(O)(c3ccccc3)c3ccccc3)sc2n1` [Example 5, [2-Amino-4-(2,4-dichloro-phenyl)-thieno[2,3-d]pyrimidin-6-yl]-diphenyl-methanol], the IC50 was above 10 µM.
Take `Nc1nc(-c2ccc(Cl)cc2Cl)c2cc(CO)sc2n1` [Example 6, [2-Amino-4-(2,4-dichloro-phenyl)-thieno[2,3-d]pyrimidin-6-yl]methanol]: the IC50 was below 10 µM.
On the same count and under the same terms, with `Cc1ccc(-c2nc(N)nc3sc(C#N)cc23)c(C)c1` [Example 7, 2-Amino-4-(2,4-dimethylphenyl)-thieno[2,3-d]pyrimidine-6-carbonitrile] the figure was below 10 µM; with `CCC(=O)c1cc2c(-c3ccc(Cl)cc3Cl)nc(N)nc2s1` [Example 8, 1-[2-Amino-4-(2,4-dichloro-phenyl)-thieno[2,3-d]pyrimidine-6-yl]-propan-1-one], below 10 µM; with `Nc1nc(-c2ccc(Cl)cc2Cl)c2cc(C(=O)c3ccccc3)sc2n1` [Example 9, [2-Amino-4-(2,4-dichloro-phenyl)-thieno[2,3-d]pyrimidine-6-yl]-phenyl-methanone], below 10 µM.
Still for that read-out and setting: with `Cc1ccc(-c2nc(N)nc3sc(C4=NCCN4)cc23)c(C)c1` [Example 11, 6-(4,5-Dihydro-1H-imidazol-2-yl)-4-(2,4-dimethyl-phenyl)-thieno[2,3-d]pyrimidin-2-ylamine] the figure was below 10 µM; with `CN1CCN(NC(=O)c2cc3c(-c4ccc(Cl)cc4Cl)nc(N)nc3s2)CC1` [Example 12, 2-Amino-4-(2,4-dichloro-phenyl)-thieno[2,3-d]pyrimidine-6-carboxylic acid (4-methyl-piperazin-1-yl) amide], below 10 µM; with `Nc1nc(-c2ccc(Cl)cc2Cl)c2cc(C(=O)Nn3cnnc3)sc2n1` [Example 13, 2-Amino-4-(2,4-dichloro-phenyl)-thieno[2,3-d]pyrimidine-6-carboxylic acid [1,2,4]triazol-4-ylamide], below 10 µM.
Still for that read-out and setting: under `CCCNCc1cc2c(-c3ccc(C)cc3C)nc(N)nc2s1` [Example 18, 4-(2,4-dimethyl-phenyl)-6-propylaminomethyl-thieno[2,3-d]pyrimidin-2-ylamine] stands below 10 µM.
As for `Cc1cc(-c2cc3c(-c4ccc(Cl)cc4Cl)nc(N)nc3s2)[nH]n1` [Example 19, 4-(2,4-Dichloro-phenyl)-6-(5-methyl-2H-pyrazol-3-yl)-thieno[2,3-d]pyrimidin-2-ylamine], the IC50 is below 10 µM.
On the same count and under the same terms, with `Cc1cn[nH]c1-c1cc2c(-c3ccc(Cl)cc3Cl)nc(N)nc2s1` [Example 20, 4-(2,4-Dichloro-phenyl)-6-(4-methyl-2H-pyrazol-3-yl)-thieno[2,3-d]pyrimidin-2-ylamine] the figure was below 10 µM; with `Nc1nc(-c2ccc(Cl)cc2Cl)c2cc(-c3ccc[nH]3)sc2n1` [Example 21, 4-(2,4-Dichloro-phenyl)-6-(1H-pyrrol-2-yl)-thieno[2,3-d]pyrimidin-2-ylamine], below 10 µM.
On to `CC(=O)Nc1nc(C)c(-c2cc3c(-c4ccc(Cl)cc4Cl)nc(N)nc3s2)[nH]1` [Example 22, N-{5-[2-Amino-4-(2,4-dichloro-phenyl)-thieno[2,3-d]pyrimidin-6-yl]-4-methyl-1H-imidazol-2-yl}-acetamide], for which the IC50 is below 10 µM.
The same measure, in the same setting: under `Nc1nc(-c2ccc(Cl)cc2Cl)c2cc(-c3cnc[nH]3)sc2n1` [Example 24, 4-(2,4-Dichloro-phenyl)-6-(3H-imidazol-4-yl)-thieno[2,3-d]pyrimidin-2-ylamine] stands below 10 µM.
`NCc1cc2c(-c3ccc(Cl)cc3Cl)nc(N)nc2s1` [Example 25, 6-Aminomethyl-4-(2,4-dichloro-phenyl)-thieno[2,3-d]pyrimidin-2-ylamine]: the IC50 was below 10 µM.
Same read-out and setting: with `CC(=O)NCc1cc2c(-c3ccc(Cl)cc3Cl)nc(N)nc2s1` [Example 26, N-[2-Amino-4-(2,4-dichloro-phenyl)-thieno[2,3-d]pyrimidin-6-ylmethyl]-acetamide] the figure was below 10 µM; with `Cc1ccc(-c2nc(N)nc3sccc23)c(C)c1` [Example 27, 4-(2,4-Dimethyl-phenyl)-thieno[2,3-d]pyrimidine-2-ylamine], below 10 µM; with `N#Cc1cc2c(-c3cc(OCc4ccccc4)c(Cl)cc3Cl)nc(N)nc2s1` [Example 28, 2-amino-4-(5-benzyloxy-2,4-dichloro-phenyl)-thieno[2,3-d]pyrimidine-6-carbonitrile], below 10 µM.
Turning to `CCN(CC)CCOc1cc(-c2nc(N)nc3sc(C#N)cc23)c(Cl)cc1Cl` [Example 29, 2-Amino-4-[2,4-dichloro-5-(diethylamino-ethoxy)-phenyl]-thieno[2,3-d]pyrimidine-6-carbonitrile], the IC50 was below 10 µM.
For `CCN(CC)CCOc1cc(-c2nc(N)nc3sc(/C(N)=N/O)cc23)c(Cl)cc1Cl` [Example 30, 2-Amino-4-[2,4-dichloro-5-(2-diethylamino-ethoxy)-phenyl]-N-hydroxy-thieno[2,3-d]pyrimidine-6-carboxamidine], the IC50 is below 10 µM.
On the same count and under the same terms, under `CCN(CC)CCOc1cc(-c2nc(N)nc3sc(C4=NCCN4)cc23)c(Cl)cc1Cl` [Example 31, 4-[2,4-dichloro-5-(2-diethylamino-ethoxy)-phenyl]-6-(4,5-dihydro-1H-imidazol-2-yl)-thieno[2,3-d]pyrimidin-2-ylamine] stands below 10 µM.
Consider `CCN(CC)CCOc1cc(-c2nc(N)nc3sc(CO)cc23)c(Cl)cc1Cl` [Example 32, {2-amino-4-[2,4-dichloro-5-(2-diethylamino-ethoxy)-phenyl]-thieno[2,3-d]pyrimidin-6-yl}-methanol], for which the IC50 was below 10 µM.
As to `CCN(CC)CCOc1cc(-c2nc(N)nc3sc(C=O)cc23)c(Cl)cc1Cl` [Example 33, 2-amino-4-[2,4-dicholoro-5-(2-diethylamino-ethoxy)-phenyl]thieno[2,3-d]pyrimidine-6-carbaldehyde], the IC50 was below 10 µM.
Same read-out and setting: with `CCN(CC)CCOc1cc(-c2nc(N)nc3sc(/C=C/C(C)=O)cc23)c(Cl)cc1Cl` [Example 34, 4-{2-Amino-4-[2,4-dicholoro-5-(2-diethylamino-ethoxy)-phenyl]thieno[2,3-d]pyrimidine-6-yl}-but-3-en-2-one] the figure was below 10 µM; with `CCN(CC)CCOc1cc(-c2nc(N)nc3sc(-c4cc(C)n[nH]4)cc23)c(Cl)cc1Cl` [Example 35, 4-[2,4-dicholoro-5-(2-diethylamino-ethoxy)-phenyl]-6-(5-methyl-2H-pyrazol-3-yl)-thieno[2,3-d]pyrimidine-2-ylamine], below 10 µM.
As for `CCN(CC)CCOc1cc(-c2nc(N)nc3sc(C(=O)O)cc23)c(Cl)cc1Cl` [Example 36, 2-Amino-4-[2,4-dichloro-5-(2-diethylamino-ethoxy)-phenyl]-thieno[2,3-d]pyrimidine-6-carboxylic acid], the IC50 was below 10 µM.

These data come from US20090069336A1, “PYRIMIDOTHIOPHENE COMPOUNDS” (VERNALIS (CAMBRIDGE) LIMITED., priority 2004, published 2009).
